Results: ChEMBL document CHEMBL5728354, “1,2-dihydro-3H-pyrazolo[3,4-d]pyrimidin-3-one derivative as Wee1 inhibitor” (2021)
pIC50: −log10 of the molar value.

Each compound was assayed against Wee1-like protein kinase (Homo sapiens, UniProt P30291) (assay: In Vitro Enzymatic Inhibitory Activity Assay: Experimental Reagents:Basic reaction buffer: 20 mM hydroxyethylpiperazine ethanesulfuric acid (pH 7.5), 10 mM magnesium chloride, 1 mM EGTA, 0.02% Brij35, 0.02 mg/mL bovine serum albumin, 0.1 mM Na3VO4, 2 mM DTT, 1% DMSOEnzyme: Wee-1 concentration is 150 nMMatrix: MBP concentration is 20 μMCompound Treatment:The tested compound was formulated into a 5 mM solution with 100% DMSO, and a 10 points 3-fold gradient dilution was performed with DMSO through an automated pipetting station epMotion 5070.Experiment Procedure:1. Fresh matrix configuration reaction buffer was prepared;2. The Wee-1 was added into the matrix solution and shaked gently;3. DMSO solution of the compound were added into the kinase reaction mixture using an acoustic technique (Echo 550; nanoliter range) and incubated for 20 minutes at room temperature;4. 33P-ATP (specific activity, 10 μCi/μL) was added into the reaction mixture to stimulate the reaction;5. Incubated for 2 hours at room temperature;6. Kinase activity was detected by filter-binding method.).
Sequence of Wee1-like protein kinase (P30291 whole entry): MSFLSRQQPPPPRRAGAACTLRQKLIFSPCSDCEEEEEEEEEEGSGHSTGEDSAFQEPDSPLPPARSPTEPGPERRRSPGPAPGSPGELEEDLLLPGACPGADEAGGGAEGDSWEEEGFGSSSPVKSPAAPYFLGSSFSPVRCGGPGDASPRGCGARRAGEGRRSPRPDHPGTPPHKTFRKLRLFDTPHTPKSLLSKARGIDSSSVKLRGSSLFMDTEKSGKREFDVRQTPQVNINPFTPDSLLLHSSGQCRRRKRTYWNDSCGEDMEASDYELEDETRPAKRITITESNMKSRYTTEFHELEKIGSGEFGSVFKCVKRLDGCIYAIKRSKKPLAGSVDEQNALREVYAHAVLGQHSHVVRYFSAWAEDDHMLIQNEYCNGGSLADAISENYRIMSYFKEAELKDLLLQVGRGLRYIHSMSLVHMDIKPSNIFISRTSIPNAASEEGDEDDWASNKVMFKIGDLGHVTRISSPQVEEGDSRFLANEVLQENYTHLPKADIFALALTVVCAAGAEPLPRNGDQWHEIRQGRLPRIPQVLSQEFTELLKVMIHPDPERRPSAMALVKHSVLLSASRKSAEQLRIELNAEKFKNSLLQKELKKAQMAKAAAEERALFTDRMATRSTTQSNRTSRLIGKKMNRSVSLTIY

pIC50 | Compound
6.21 | C=CCn1c2nc(Nc3ccc(N4CCC5(CCN(C)CC5)CC4)cc3)ncc2c(=O)n1-c1ccccc1Cl
7.19 | C=CCn1c(=O)c2cnc(Nc3ccc(N4CCC5(CCN(C)CC5)CC4)cn3)nc2n1-c1cccc(C(C)(C)O)n1
7.04 | C=CCn1c(=O)c2cnc(Nc3ccc(N4CCC5(CCN(C)CC5)CC4)cc3)nc2n1-c1cnccn1
